This passage reports IC50 and IC90 results from US8598339B2, “Withanolide isolated from Physalis longifolia and analogs and methods of use thereof” (University of Kansas, priority 2011, dated 2013).

Type in all cases: cell-based
The subject of assay [1] is human melanoma SKMEL28 cells. Put plainly: MTS cell viability assay, SKMEL28. Conditions: for IC90: SK-MEL-28, Table 6. How it is done:
(§1) Human carcinoid cells, NCI-H727 (ATCC, Manassas, Va.), were cultured under standard conditions. Squamous cell carcinoma of head and neck cells, MDA1986 (Myers, et al. (2002) Clin. Cancer Res. 8:293) and JMAR (Swan, et al. (2003) Oral Oncol. 39:648-55); and melanoma cells lines B16F10 (ATCC, Manassas, Va.) and SKMEL28 (CLS, Eppelheim, Germany) were cultured in DMEM medium supplemented with 10% heat-inactivated fetal bovine serum (Sigma-Aldrich, St. Louis, Mo.), 1×MEM-essential amino acid, 1×MEM vitamin, and penicillin/streptomycin (Sigma-Aldrich, St. Louis, Mo.) in a humid environment of 5% CO2 at 37° C. Activity of withanolides against DRO81-1 and TT medullary thyroid cancer cells was also determined.
(§2) Cells were cultured in 96 well plates at a concentration of 1-2×10^4 cells/mL. Cell viability was assessed with the nonradioactive cell proliferation MTS assay using Cell Titer 96AQUEOUS One Solution Reagent (PROMEGA, Madison, Wis.), according to the manufacturer's instruction. After a 72-hour treatment, 20 μL of Cell Titer 96AQUEOUS One Solution Reagent were added to each well and incubated for 3 hours at 37° C. 5% CO2, and formazan absorbance was measured at 490 nm.
A cell viability MTS assay was carried out to determine the anti-cancer effect of the withanolides on human melanoma SKMEL28 cells. Cells were treated for 72 hours and cell viability was determined according to the manufacturer's instruction.

Assay [2] has as its system squamous cell carcinoma of head and neck cells MDA1986. Put plainly: MTS cell viability assay, MDA1986. Particulars: for IC50: Table 5; for IC90: Table 6. How it is done: as §1, §2
In assay [3] the test system is MRC-5. Put plainly: MTS cell viability assay, MRC-5. Particulars: Homo sapiens, MRC5, Table 5.
The subject of assay [4] is melanoma cells B16F10. Put plainly: MTS cell viability assay, B16F10. Conditions: Mus musculus; for IC50: B16-F10, Table 5; for IC90: B16-F10, Table 6. How it is done: as §1, §2
Assay [5] relates to squamous cell carcinoma of head and neck cells JMAR. As to the kind of experiment: MTS cell viability assay, JMAR. Conditions: for IC50: Table 5; for IC90: Table 6. How it is done: as §1, §2
[6] abbreviates: Table 3, treated for 72 hours, NA = no activity.
The mark [7] stands for this setting: Homo sapiens, SK-MEL-28, Table 5.

`C=CCNC1=C2C[C@@H](C)C[C@H](OC)[C@H](O)[C@@H](C)/C=C(\C)[C@H](OC(N)=O)[C@@H](OC)/C=C\C=C(/C)C(=O)NC(=CC1=O)C2=O` [17 AAG, 17-allylamino-17-demethoxygeldanamycin, reference compound] returned an IC50 in assay [1] (setting [6]) of 0.23 µM.
`CC1=C(CO)C(=O)OC(C(C)C2CCC3C4CC(O)C5(C=O)CCC(=O)C5(C)C4CCC23C)C1` (stereo not drawn) [Compound O010, 22R-5β-formyl-6β,27-dihydroxyl-1-oxo-4-norwith-24-enolide, reference compound] yielded an IC50 in assay [1] (setting [6]) of 17 µM.
Regarding `CC1=C(CO)C(=O)O[C@@H]([C@@H](C)[C@H]2CC[C@H]3[C@@H]4CC=C5C=CC(=O)[C@]5(C)[C@H]4CC[C@]23C)C1` [Compound X006], the concentration for half-maximal inhibition (IC50) in assay [2] is greater than 25 µM; in assay [3], greater than 25 µM; in assay [1] (setting [7]), greater than 25 µM; in assay [4], 19.2 µM; in assay [5], 19.7 µM.
With `CO[C@H]1CC(=O)[C@]2(C)[C@@H]3[C@@H](C[C@H]4O[C@]42[C@H]1O)[C@@H]1CC[C@H]([C@H](C)[C@H]2CC(C)=C(CO)C(=O)O2)[C@@]1(C)C[C@@H]3O` [Compound X007], the IC50 came out at 8.34 µM in assay [2]; 7.33 µM in assay [3]; 11.6 µM in assay [1] (setting [7]); 5.57 µM in assay [4]; 12 µM in assay [5].
In the same order, the values of `CC1=C(COC2OC(CO)C(OC3OC(C)C(O)C(O)C3O)C(O)C2O)C(=O)O[C@@H]([C@@H](C)[C@H]2CC[C@H]3[C@@H]4C[C@H]5O[C@]56[C@@H](O)C=CC(=O)[C@]6(C)[C@H]4CC[C@]23C)C1` (stereo partly drawn) [Compound X011] are 8.1 µM, 8.72 µM, 17.4 µM, greater than 25 µM and 8.24 µM.
In the same order, the values of `CC1=C(CO)C(=O)O[C@@](C)([C@@H](C)[C@H]2CC[C@H]3[C@@H]4CC=C5C[C@@H](OC6OC(CO)C(O)C(O)C6O)CC(=O)[C@]5(CO)[C@H]4CC[C@]23C)C1` (stereo partly drawn) [Compound X012] are greater than 25 µM, greater than 25 µM, greater than 25 µM, 10.7 µM and greater than 25 µM.
In the same order, the values of `CC1=C(COC2OC(CO)C(O)C(O)C2O)C[C@H]([C@@H](C)[C@H]2CC[C@H]3[C@@H]4CC=C5C[C@@H](O)C[C@H](O)[C@]5(CO)[C@H]4CC[C@]23C)OC1=O` (stereo partly drawn) [Compound X013] are greater than 25 µM, greater than 25 µM, greater than 25 µM, greater than 25 µM and greater than 25 µM.
`CC1=C(COC2OC(CO)C(O)C(O)C2O)C[C@H]([C@@H](C)[C@H]2CC[C@H]3[C@@H]4CC(=O)C5=C(CC[C@@H](O)C5)[C@H]4CC[C@]23C)OC1=O` (stereo partly drawn) [Compound X014]: the IC50 in assay [2], in assay [3], in assay [1] (setting [7]), in assay [4] and in assay [5] was greater than 25 µM each time.
With `CC1=C(COC2OC(CO)C(O)C(O)C2O)C[C@H]([C@@H](C)[C@H]2CC[C@H]3[C@@H]4C[C@H](O)c5cccc(O)c5[C@H]4CC[C@]23C)OC1=O` (stereo partly drawn) [Compound X015], the IC50 in assay [2], in assay [3], in assay [1] (setting [7]), in assay [4] and in assay [5] was greater than 25 µM each time.
On to `CC1=C(COC2OC(CO)C(O)C(O)C2O)C[C@H]([C@@H](C)[C@H]2CC[C@H]3[C@@H]4CCC5=C(C(=O)C[C@H](O)C5)[C@H]4CC[C@]23C)OC1=O` (stereo partly drawn) [Compound X026B], for which the IC50 in assay [2] is greater than 25 µM; in assay [3], 13.5 µM; in assay [1] (setting [7]), greater than 25 µM; in assay [4], 11 µM; in assay [5], greater than 25 µM.
Take `CC1=C(C)C(=O)O[C@@H]([C@@H](C)[C@H]2CC[C@H]3[C@@H]4C[C@H]5O[C@]56[C@@H](O)C=CC(=O)[C@]6(CO)[C@H]4CC[C@]23C)C1` [Compound X030B]: the IC50 in assay [2] was determined as 1.3 µM; in assay [3], 0.4 µM; in assay [1] (setting [7]), 3.91 µM; in assay [4] it was 0.2 µM; in assay [5], 0.17 µM.
The corresponding values for `CC1=C(CO)C(=O)O[C@@H]([C@@H](C)[C@H]2CC[C@H]3[C@@H]4C[C@H]5O[C@]56[C@@H](OC(=O)CN(C)C)C=CC(=O)[C@]6(C)[C@H]4CC[C@]23C)C1` [Compound X036] are 1.59 µM, 3.69 µM, 2.35 µM, 4.37 µM and 3.53 µM.
As for `CC(=O)OCC1=C(C)C[C@H]([C@@H](C)[C@H]2CC[C@H]3[C@@H]4C[C@H]5O[C@]56[C@@H](O)C=CC(=O)[C@]6(CO)[C@H]4CC[C@]23C)OC1=O` [HFM-JA-336A], the IC90 in assay [2] worked out at 2.7 µM; in assay [1] (Homo sapiens) it was 0.86 µM; in assay [4] it was 2.7 µM; in assay [5], 9.8 µM. Further, the IC50 in assay [1] (setting [7]) was 0.58 µM; in assay [4], 0.28 µM; in assay [5], 3.6 µM.
In the case of `CC(=O)OC[C@]12C(=O)C=C[C@H](O)[C@]13O[C@@H]3C[C@H]1[C@@H]3CC[C@H]([C@H](C)[C@H]4CC(C)=C(CO)C(=O)O4)[C@@]3(C)CC[C@@H]12` [HFM-JA-336B], the concentration for an effect of 90% (IC90) was determined as 1.2 µM in assay [2], 1.16 µM in assay [1] (Homo sapiens), 1.2 µM in assay [4] and 3.1 µM in assay [5]. Also, the IC50 in assay [1] (setting [7]) was found to be 0.24 µM; in assay [4], 0.37 µM; in assay [5], 1.2 µM.
Regarding `CC(=O)O[C@H]1C=CC(=O)[C@]2(CO)[C@H]3CC[C@]4(C)[C@@H]([C@H](C)[C@H]5CC(C)=C(CO)C(=O)O5)CC[C@H]4[C@@H]3C[C@H]3O[C@]132` [HFM-JA-336C], the IC90 turned out to be 2.5 µM in assay [2], 1.21 µM in assay [1] (Homo sapiens), 2.5 µM in assay [4] and 6.5 µM in assay [5]. The IC50 is 0.57 µM in assay [1] (setting [7]), 0.69 µM in assay [4] and 2 µM in assay [5].
On to `CC(=O)OCC1=C(C)C[C@H]([C@@H](C)[C@H]2CC[C@H]3[C@@H]4C[C@H]5O[C@]56[C@@H](O)C=CC(=O)[C@]6(COC(C)=O)[C@H]4CC[C@]23C)OC1=O` [HFM-JA-336D], for which the 90% effect concentration (IC90) amounted to 2.5 µM in assay [2], 0.42 µM in assay [1] (Homo sapiens), 2.5 µM in assay [4] and 7.1 µM in assay [5]. Further, the IC50 stood at 0.27 µM in assay [1] (setting [7]), 0.37 µM in assay [4] and 1.45 µM in assay [5].
In the case of `CC1=C(CO)C(=O)O[C@@H]([C@@H](C)[C@H]2CC[C@H]3[C@@H]4C[C@H]5O[C@]56[C@@H](O)[C@@H](O)CC(=O)[C@]6(C)[C@H]4CC[C@]23C)C1` [Viscosalactone B, reference compound], the IC50 in assay [1] (setting [6]) was found to be 18.9 µM.
